Where “and” joins values, the source holds several entries; their conditions need not be identical. Equal values may be shown once.
What was measured:
[1] = test system: MDA-MB-231-2003 breast cancer cells; assay: Experimental metastasis breast tumor xenograft model in SCID mice; type: in vivo; details: 360 μg/kg i.p. 24 hr and 4 hr before tumor cell injection
Description: An anticancer agent including a compound represented by formula X (hereinafter “X”) was evaluated for the ability to inhibit tumor growth and experimental metastasis in a breast tumor xenograft model in immunocompromised (SCID) mice.
MDA-MB-231-2003 breast cancer cells (1×10^6 in 0.1 ml PBS) were injected into the lateral tail vein of female SCID mice and the ability of X to inhibit metastasis to the lung was investigated (n=5 for the test X treated-mice or n=4 for the control PBS-treated mice). Mice were initially treated via intraperitoneal (i.p.) injection with either X (360 μg/kg; ˜5 μM final concentration in blood; the “test” mice) or with PBS (the “control” mice) some 24 hr. before tumor cell injection. A second injection (i.p.) was given at the same dosage of X (360 μg/kg) at 4 hr. before tumor cell injection to the test mice while the control mice received an equivalent volume of PBS before tumor cell injection. […] Thereafter, all mice were monitored by image analysis (IVIS® imaging system) every two weeks for tumor cells in their lungs and were sacrificed at day 28 post tumor cell injection.

[2] = test system: A/Puerto Rico/8/1934 (H1N1) influenza A virus; type: in vivo, BALB/c mice
[3] = test system: human platelets; assay: Thrombin-induced platelet aggregation of human platelets ex vivo; type: cell-based
Source text: The method of assessing platelet aggregation also allows evaluation of the effect of the compounds of the invention on platelet aggregation upon stimulation by other agonists, e.g., adenosine diphosphate (ADP) and thrombin.

[4] = test system: MDA-MB-231-D3H2LN-Luc cells; assay: Spontaneous/orthotopic breast cancer model, mammary fat pad injection; type: in vivo; details: for First Appearance of Mets, Mean ± S.E.M.: lymph node metastases; for Day of Sacrifice Mean ± S.E.M.: primary tumor reaching 15 mm
Source text: In order to further assess the efficacy of TP20 for use as an anti-cancer, affecting primary tumor growth, and/or as an anti-metastatic agent, a spontaneous/orthotopic cancer model was employed by injection of the triple negative MDA-MB-231 breast cancer cell line (ER, PR, Her2 negative) into the mammary fat pad of immune compromised Balb-C nude mice. More specifically, in order to increase the growth rate of the primary tumor and increase the incidence of metastasis, a more aggressive variant of the MDA-MB-231 cell line, namely MDA-MB-231-D3H2LN-Luc (Jenkins et al., (2005), Breast Cancer Res, 7, 444-454), was used in the studies described below. Furthermore, the latter MDA-MB-231-D3H2LN-Luc cell line stably over-expresses the firefly luciferase gene (Luc) thereby enabling monitoring and in vivo detection of both the primary tumor and of the secondary metastasis by bioluminescent imaging in addition to assessment of the growth of the primary tumor by standard caliper measurements. In total, three groups of animals were studied and the diagram below gives an overview of the study design. FIG. 7 provides a diagram of a study design.
Body weights of the BALB/c nude mice were recorded prior to initiating the study and, thereafter, 3 times per week (Monday, Wednesday & Friday) following the mammary fat pad injection up to the point of sacrifice or death of the animal, as per welfare guidelines. Animals were typically sacrificed once the primary tumor reached 15 mm or, as required, if animals needed to be culled for welfare reasons.
BALB/C-nude mice (female, 5-7 weeks old) were pre-treated 24 and 4 hr with TP20 at 0.36 mg/kg (blue line; Group 1), 1 mg/kg (red line; Group 2) or as control, vehicle (1% DMSO in PBS; black line; Group 3) prior to injecting MDA-MB-231-D3H2LN-Luc cells (50 μl, 2×106 suspended in 50% DPBS/50% Matrigel) into the mammary fat pad with a 27.5 G needle. Thereafter, mice were treated with TP20 or vehicle thrice weekly (Monday, Wednesday & Friday) until the primary tumor width reached 15 mm. Body weight was monitored 3 times per week. The data presented represents the mean (FIG. 8A; ±S.E.M.) or Percentage in Body Weight (FIG. 8B; ±S.E.M.), where weight at day −1 is 100%.
Through the duration of the study to monitor the growth of the primary (1°) tumor, for welfare and experimental reasons, caliper measurements were performed thrice weekly (i.e., Monday, Wednesday & Friday) and involved measuring the width and length of the primary tumor mass. These measurements were then used in the following formula to calculate the tumor volume (mm3): Volume of Tumor (mm3)=length×width2×0.5
BALB/C-nude mice (female, 5-7 weeks old) were pre-treated 24 and 4 hr with TP20 at 0.36 mg/kg (blue line; Group 1), 1 mg/kg (red line; Group 2) or as control, vehicle (1% DMSO; black line; Group 3) prior to injecting MDA-MB-231-D3H2LN-Luc cells (50 μl, 2×106 suspended in 50% DPBS/50% Matrigel) into the mammary fat pad with a 27.5 G needle. Thereafter, mice were treated with TP20 or vehicle thrice weekly (Monday, Wednesday & Friday) until the primary tumor diameter reached 15 mm. Primary tumor growth was monitored thrice weekly using caliper measurements where tumor volume (mm3) is calculated by the formula Volume=Length×width2×0.5. The data presented represents the mean (±S.E.M.) tumor volume (mm3) for each of the treatment groups as a function of time (days). Fine black lines represent the linear trend for each of the treatment groups.
As the 1° tumors reached 15 mm in diameter, for welfare reasons the animals were sacrificed. The day of sacrifice was analyzed using Kaplan-Meier survival analysis and subsequent Log-Rank and Wilcoxon tests to compare any differences between the treatments groups in terms of time of death. […]

[5] = lung, Day 4, Tamiflu 10 mg/kg, TP20 0.36 mg/kg
[6] = lung, Day 4, number of animals of 3

Structure (SMILES): COc1ccc(-c2cccc(Oc3ccc([N+](=O)[O-])cc3S(=O)(=O)NC(=O)NC(C)(C)C)c2)cc1 [TP20, N-(tert-butylcarbamoyl)-2-((4′-methoxy-[1,1′-biphenyl]-3-yl)oxy)-5-nitrobenzene-sulfonamide]
- lung tumor development ([1]; day 28): did not develop any tumors
- mice surviving to the end of the experiment (day 28) ([1]; n=5): 5
- mean time of death post-viral challenge ([2]; TP20 360 μg/kg oral gavage twice daily): 7.2 days
- loss of body weight post-viral infection ([2]; Tamiflu 10 mg/kg, TP20 360 μg/kg, oral gavage twice daily): ≤ 30%
- Alveolar Acute Inflammation, number of animals with the finding ([2]; lung, Day 4, 3 animals): (0)
- Bronchiolar Erosion, number of animals with the finding ([2]; lung, Day 4, 3 animals): (3)
- Bronchiolar Exudate, number of animals with the finding ([2]; lung, Day 4, 3 animals): (3)
- Bronchiolar acute Inflammation, number of animals with the finding ([2]; lung, Day 4, 3 animals): (3)
- Vascular Necrosis, number of animals with the finding ([2]; lung, Day 4, 3 animals): (0)
- Extent of Perivascular Edema (Mean ± S.E.M.), Per Animal [2, 5]: 16.9 ± 1.09 (70) arbitrary units and 17.4 ± 0.98 (89) arbitrary units and 19.2 ± 1.10 (78) arbitrary units
- Extent of Perivascular Edema (Mean ± S.E.M.), Per Treatment Group [2, 5]: 18.0 ± 0.59 arbitrary units
- reduction in the perivascular edema compared to vehicle [2, 5]: approx. 20%
- Bronchiolar Erosion, Mild [2, 6]: 3
- Bronchiolar Erosion, Minimal [2, 6]: 0
- Bronchiolar Erosion, Moderate [2, 6]: 0
- Bronchiolar Exudate, Mild [2, 6]: 1
- Bronchiolar Exudate, Minimal [2, 6]: 2
- Bronchiolar Exudate, Moderate [2, 6]: 0
- Bronchiolar acute Inflammation, Mild [2, 6]: 0
- Bronchiolar acute Inflammation, Minimal [2, 6]: 3
- Perivascular Edema, Mild [2, 6]: 0
- Perivascular Edema, Minimal [2, 6]: 3
- Perivascular Edema, number of animals with the finding ([2]; mouse, in vivo): (3)
- effect on thrombin-induced platelet aggregation [3]: did not affect
- effect on primary tumor growth ([4]; 0.36 mg/kg and 1 mg/kg vs. vehicle): significantly decreases the primary tumor growth
- tolerability of repeat administration (body weight) ([4]; 0.36 mg/kg and 1 mg/kg, thrice weekly): well-tolerated
- First Appearance of Mets, Mean ± S.E.M. ([4]; Group 1, 0.36 mg/kg): 22.5 ± 2.16 (N = 8) days
- Day of Sacrifice Mean ± S.E.M. ([4]; Group 1, 0.36 mg/kg): 38.5 ± 2.83 (N = 8) days
- First Appearance of Mets, Mean ± S.E.M. ([4]; Group 2, 1 mg/kg): 26.2 ± 3.71 (N = 9) days
- Day of Sacrifice Mean ± S.E.M. ([4]; Group 2, 1 mg/kg): 38.4 ± 3.86 (N = 7) days
